Test results: publication PMC8999917, “Structure–Activity Relationship of Synthetic Ginkgolic Acid Analogs for Treating Type 2 Diabetes by PTPN9 Inhibition” (International Journal of Molecular Sciences, 2022)

Biological target: T1, GPR120 (Homo sapiens, UniProt Q5NUL3)
T1 construct: host or cells: CHO cells
T1 sequence (Q5NUL3 1-361): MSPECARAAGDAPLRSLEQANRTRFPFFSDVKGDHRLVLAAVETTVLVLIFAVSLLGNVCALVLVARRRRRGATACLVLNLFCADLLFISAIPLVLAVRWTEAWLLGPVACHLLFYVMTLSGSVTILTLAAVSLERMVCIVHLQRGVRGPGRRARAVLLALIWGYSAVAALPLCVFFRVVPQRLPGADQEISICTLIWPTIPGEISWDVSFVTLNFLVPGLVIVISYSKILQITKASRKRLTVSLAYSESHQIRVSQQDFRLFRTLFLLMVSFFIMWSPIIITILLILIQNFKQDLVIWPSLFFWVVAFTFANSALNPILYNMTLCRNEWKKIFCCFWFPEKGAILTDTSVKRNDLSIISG
Assay: GPR120 SRE-Luc reporter gene assay in CHO cells
Assay type: cell-based
Conditions: 50 μM
Source text: Glucose uptake is regulated by three major mechanisms. First, through the activation of the Akt pathway, which promotes GLUT4 translocation via the activation of the signaling cascade involving the insulin receptor substrate (IRS) family and PI3 kinase through […] or G-protein-coupled receptors (GPCRs); second, through the upregulation of AMPK phosphorylation, which increases glucose uptake by inducing GLUT4 translocation to the plasma membrane; third, through the promotion of GLUT4 expression by PPARγ ligands. […] However, these compounds may induce GLUT4 expression and improve insulin sensitivity in the treated cells through their interactions with GPCR and/or PPARγ. Among GPCRs highly expressed in 3T3-L1 adipocytes and C2C12 muscle cells, GPR120 is the receptor that is most closely associated with glucose uptake. […] This was performed following a previously described method. In brief, CHO cells were plated to 96-well white plates (REF3610, Corning Life Sciences, NY, USA) in DMEM (HyClone^TM, Cytivalifescience, Seoul, Korea) supplemented with 10% FBS and 1% penicillin at a density of 1.5 × 10^4 cells/well. […] After incubation for another 24 h, luciferase activity was measured using the dual-luciferase assay system (Promega Korea, Seoul, Korea) according to the manufacturer’s instructions. […]

GPR120 transcriptional activity (SRE-Luc)	SMILES
No significant change	CCCCCCCCCCCCCOc1cccc(O)c1C(=O)O [Compound 1e]
No significant change	CCCCCCCCCCCCCCCOc1cccc(O)c1C(=O)O [Compound 1f]
